Data set [1] has as its system EA.hy926 endothelial cell monolayer. The experiment in a line: Thrombin-mediated FITC-dextran permeability through endothelial cell monolayer. The conditions noted are these: peptide 100 μM, 60 min preincubation; thrombin 100 nM; 70 kDa FITC-dextran. It counts as cell-based. The procedure: FIG. 3. The thrombin-mediated FITC-dextran permeability through the EA.hy926 endothelial cell monolayer in the presence of myosin light chain kinase peptide inhibitors. Thrombin (100 nM) was added at 0 min, the cells were preincubated for 60 min with MLCK peptide inhibitors (100 μM). Data are presented as mean±SD, n=5. p<0.05 for all data points within the 20-180 min time course range as compared to the thrombin-stimulated control.
Effects of the claimed peptide (PIK7), the prototype (PIK2), and the analogue (MLC11-19) on the endothelial permeability was assayed in a model of FITC-dextran diffusion through the endothelial monolayer as described in Example 3.
Cells were grown in 24-well plates (Greiner Bio-one, Austria) equipped with special inserts to form inner (upper) chambers with a porous bottom (the pore diameter of 0.4 μm, pore density of 10^8/cm^2) in DMEM until monolayer was formed (3-4 days). Successful monolayer was checked by measuring FITC-dextran diffusion for 1 hour through inserts with cell monolayers vs inserts without cells (‘blank’ inserts). Experiments were performed in triplicates when tight monolayers were formed. On the day of experiment, the cells were deprived for 1 h in DMEM supplemented with MLCK inhibitors or without inhibitors (control). After deprivation, FITC-dextran was added to the upper compartment to a final concentration of 0.05 mg/ml. In 30 and 60 min, a 10-μ1 aliquot was withdrawn from the lower compartment and mixed with 100 μl phosphate buffered saline pH 7.3 in a 96-well plate to estimate the endothelial monolayer baseline permeability. […] During the next 3 hrs, every 30 min, aliquots were taken from the lower compartment, and intensity of FITC fluorescence was measured using a Victor 3X plate reader (Perkin Elmer, USA) to plot the dynamics of the FITC fluorescence changes.
As shown, 100 nM thrombin induces the endothelial hyperpermeability response as reflected by an increase in 70 kDa FITC-dextran diffusion through the endothelial monolayer and an incremental increase in the fluorescence in the lower compartment of the diffusion chamber. […]

The conditions of data set [2]: rabbit, in vivo.
The nature of data set [3]: Peptide half-lives in human plasma in vitro (1H-NMR spectroscopy). The class given is in vitro ADME. The conditions noted are these: for half-life: human, plasma. The procedure: Whole blood (100 mL) was collected from healthy donors to 50-mL tubes containing 5 mL of a preservative (130 mM citrate in phosphate buffered saline (PBS), pH 7.4). The blood was incubated for 15-20 min at room temperature followed by centrifugation at 1500 g for 15 min at 18° C. The supernatants were transferred to clear tubes and centrifuged as above. Dry NaBr was added to the plasma (280 mg per 1 mL of plasma). After dissolution of NaBr, the plasma (approx. 30 mL) was transferred to centrifuge tubes (Type 45Ti rotor, Beckman, USA) and layered with 20 mL of a solution (specific mass of […]), which was prepared as follows—11.42 g of NaCl and 100 mg of ethylenediaminetetraacetic acid (EDTA) were dissolved in distilled water in a final volume of 1 L (pH 7.4) and 281.44 g of NaBr was added. The plasma was centrifuged at 40,000 rpm for 48 hrs. The upper dark-yellow fraction containing lipoproteins and the colorless buffer fraction were discarded leaving approx. 1-cm high buffer above the apparent plasma border. Portions of plasma obtained from one donor were pooled and dialyzed for 36 hrs against 4 L of PSB free of Ca^2+ and Mg^2+(MP Biomedicals, USA) in dialysis bags with 12-14 kDa pore sizes. The dialysis procedure was repeated twice with fresh buffer changed every 24 hrs. After the dialysis, the plasma was centrifuged at 25,000 rpm (Type 45Ti rotor, Beckman, USA) for 15 min at 4° C. The supernatant fraction was collected and lyophilized. The dry matter was dissolved in D2O in a final volume equal to the plasma volume before NaBr was added, lyophilized again, dissolved in the same volume of D2O, and stored in 1-mL aliquots at −20° C. before use.
^1H-NMR spectroscopy was employed to analyze relative degradation of PIK7 (the claimed peptide) and MLC11-19 (the structural analogue) in human plasma. ^1H-NMR spectroscopy allows simultaneous direct monitoring the amounts of original full-length peptide and its fragments during the course of enzymatic hydrolysis (Isakova et al., 1986). Stability of a peptide, its degradation pathway(s) and a half-life estimate are available from a comparison of spectra obtained at different time points after the addition of a peptide to plasma. ^1H-NMR spectra were obtained using a WM-500 spectrometer (Bruker, Germany) at 37° C. Chemical shifts in ^1H-NMR spectra were measured relative to an internal standard (2,2-dimethyl-2-silapentane-5-sulfonate sodium salt). The signals were referenced by the double-resonance method. The resonances from peptide protons were identified by the differential spectroscopy method, i.e. the spectrum of blood plasma was subtracted from each spectrum obtained in the presence of peptide of interest. Peptide concentrations were 3 mg/ml.
These indicate the peptide N-terminus degradation. […] Therefore, the claimed peptide has an increased life-span in plasma that allows for long-lasting maintenance of its effective concentrations necessary to decrease the endothelial hyperpermeability under emergency conditions. Moreover, an increased life-time allows attaining the desired therapeutic effect with lower (as compared to homologues) peptide concentrations.

The next data set has as its system Chinchilla rabbits. The experiment in a line: Tolerance of a single intravenous injection in Chinchilla rabbits. The note with it: i.v. 10 mg/kg.

Molecules are shown by their SMILES. Entries after “also recorded” stand apart in the source; their conditions may differ. Read-outs that look alike come from different tables or passages of the source. Non-standard residues stand in square brackets, D forms with d. Residues, ends and D or L forms follow the SMILES beside them.

Experimental for Chinchilla rabbits: PIK2 dose of 5 mg/kg was calculated individually for each rabbit and administered into marginal ear vein in a final volume of 1.7-1.9 mL in sterile physiological saline. Stock concentration of the tested substance was 10 mg/mL.
During the 24-hrs testing period, the overall health status and behavior were monitored (appetite, motion activity, hair coat condition).
Before injection of test substances (baseline) and 4 hrs and 24 hrs after the injection, the following parameters were tested in whole venous blood samples (3.0-3.5 mL) collected from a marginal ear vein red blood cell (RBC) count, hematocrit, hemoglobin level, mean RBC volume, mean corpuscular hemoglobin, total leukocyte, lymphocyte, and granulocyte counts and their percentages, platelet count, and mean platelet volume. In parallel, the following biochemical parameters were measured in serum total protein, bilirubin, urea, creatinine, glucose, total cholesterol, triglycerides, and activities of alkaline phosphatase, lactate dehydrogenase, aspartate aminotransferase, and alanine aminotransferase. Blood cell count was performed using an Abacus junior vet (Austria) hematological cell counter; biochemical studies were performed using a Targa-2000 (Italy) instrument.

As for `C[C@H](NC(=O)[C@H](C)NC(=O)[C@H](CCCNC(=N)N)NC(=O)[C@@H](CCCCN)NC(=O)[C@@H](N)CCCCN)C(=O)N[C@@H](CCCNC(=N)N)C(=O)N[C@@H](C)C(=O)N[C@H](C(=O)N[C@@H](CO)C(N)=O)[C@@H](C)O` [PIK7, H-Lys-D-Lys-Arg-Ala-Ala-Arg-Ala-Thr-Ser-NH2] (H-K[dK]RAARATS-NH2), in data set [1], the “effect on thrombin-induced FITC-dextran hyperpermeability” value was “completely abolished the FITC-dextran hyperpermeability; also recorded: effectively abolished FITC-dextran hyperpermeability”. The LD50 in data set [2] is > 10 mg/kg. For the same compound, the “T1/2, half-life in human plasma in vitro” value in data set [3] (1H-NMR, 37° C., peptide 3 mg/ml) is ≥5.33 h. In data set [3] (human plasma in vitro), the “resistance to proteolysis as compared to the structural analogue (MLC11-19)” value is listed as “by one order of magnitude”. Also, the half-life in data set [3] (1H-NMR, 37° C., peptide 3 mg/ml (FIG. 2), read-out: half-life in human plasma) is ≥ 7 h; in data set [3] (1H-NMR, 37° C., peptide 3 mg/ml, read-out: T1/2, half-life in human plasma in vitro), > 5.33 h. Further, the “other standard hematological and biochemical parameters” value with Chinchilla rabbits is recorded as “not altered”. In addition, the “overall health status and behavior” value in the data set with Chinchilla rabbits (24-hrs testing period) is on record as “no significant changes either in the overall health status or behavior”. This compound also came in with a triglyceride levels with Chinchilla rabbits (24 hrs after administration, baseline 1.63 mmol/L) of 2.79 mmol/L. Moreover, the hematocrit in the data set with Chinchilla rabbits (24 hrs after administration, baseline 38.81±1.49%) was 35.90±0.18%. Further, the total plasma protein with Chinchilla rabbits (24 hrs after administration, baseline 73.6±2.58 g/L) was 69.2 ± 0.47 g/L. This compound also showed a hemoglobin level with Chinchilla rabbits (24 hrs after administration, baseline 131±5 g/L) of 120 ± 7 g/L. The survival result in the data set on Chinchilla rabbits (group of 4) is on record as “all animals survived”.

As usually defined, the LD50 is the dose at which mortality reaches 50%. Read a low LD50 as greater toxicity.

The values are drawn from US20210340178A1, “NONAPEPTIDE PREVENTING INCREASED HYPERPERMEABILITY OF VASCULAR ENDOTHELIUM” (FEDERALNOYE GOSUDARSTVENNOE BUDGETNOE UCHREZHDENIE …, priority 2018, published 2021).
